Where a name gives a salt, the structure may show the parent alone.
How the values were obtained:
acetylcholinesterase = conditions: in words; cited from earlier work
[1] = Biodistribution of radioactivity in rats after intravenous 99mTc-6a; conditions: 99mTc-labelled, in words
Description: For biodistribution studies, male Wistar rats weighing 190–260 g were used. Prior to the experiment, the animals were fasted overnight (to empty the bowels), but had free access to water. All animal experiments were approved by the Ethics Committee of the Faculty of Pharmacy, Charles University, Hradec Kralove.
The agent was administered to rats intravenously in a volume of 0.2 mL. During the course of the experiments, each animal was placed in an individual cage. At various time points after injection, the carotid artery was exposed under ether anesthesia and a blood sample was collected in glass tubes containing dry heparin. The rats were sacrificed and dissected.
The results were expressed as mean ± standard deviations of at least four animals.

[2] = target: Butyrylcholinesterase from equine serum (Equus caballus, UniProt P81908); experiment: biochemical
[3] = target: Acetylcholinesterase from Electrophorus electricus (electric eel) (Electrophorus electricus, UniProt O42275); experiment: biochemical
Sequence of Acetylcholinesterase from Electrophorus electricus (electric eel) (O42275 24-633): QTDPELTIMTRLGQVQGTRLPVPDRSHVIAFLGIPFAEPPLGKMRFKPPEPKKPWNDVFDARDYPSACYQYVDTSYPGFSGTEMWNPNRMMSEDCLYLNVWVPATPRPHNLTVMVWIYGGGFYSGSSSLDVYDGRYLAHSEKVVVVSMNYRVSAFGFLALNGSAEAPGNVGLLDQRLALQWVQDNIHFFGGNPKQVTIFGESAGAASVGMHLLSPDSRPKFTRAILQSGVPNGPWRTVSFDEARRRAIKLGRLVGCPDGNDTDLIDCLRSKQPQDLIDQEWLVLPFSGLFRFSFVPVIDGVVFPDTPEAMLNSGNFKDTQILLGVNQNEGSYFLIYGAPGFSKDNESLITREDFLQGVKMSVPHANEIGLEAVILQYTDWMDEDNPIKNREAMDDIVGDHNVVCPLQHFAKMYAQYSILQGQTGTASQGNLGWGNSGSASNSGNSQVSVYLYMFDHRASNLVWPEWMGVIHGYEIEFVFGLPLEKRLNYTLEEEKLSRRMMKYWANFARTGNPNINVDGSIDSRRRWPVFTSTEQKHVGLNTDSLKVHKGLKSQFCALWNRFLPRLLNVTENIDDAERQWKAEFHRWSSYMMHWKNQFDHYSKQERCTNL

Sequence of Butyrylcholinesterase from equine serum (P81908 whole entry): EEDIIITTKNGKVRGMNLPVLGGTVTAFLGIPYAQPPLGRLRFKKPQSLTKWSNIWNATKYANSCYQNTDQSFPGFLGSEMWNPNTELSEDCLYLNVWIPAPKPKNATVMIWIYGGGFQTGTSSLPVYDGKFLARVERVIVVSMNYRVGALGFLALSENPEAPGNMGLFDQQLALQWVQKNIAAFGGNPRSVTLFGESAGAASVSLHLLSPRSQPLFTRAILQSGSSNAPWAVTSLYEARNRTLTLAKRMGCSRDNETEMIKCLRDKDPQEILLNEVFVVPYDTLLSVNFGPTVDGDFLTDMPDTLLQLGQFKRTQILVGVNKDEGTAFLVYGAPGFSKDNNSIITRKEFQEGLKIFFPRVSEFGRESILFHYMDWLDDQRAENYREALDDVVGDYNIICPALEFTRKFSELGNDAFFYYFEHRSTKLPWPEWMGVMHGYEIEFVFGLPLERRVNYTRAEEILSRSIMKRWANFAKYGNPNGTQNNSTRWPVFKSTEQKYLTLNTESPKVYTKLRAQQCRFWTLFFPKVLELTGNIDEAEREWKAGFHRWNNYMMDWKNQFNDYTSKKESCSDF

Row | SMILES | potency compared with tacrine (acetylcholinesterase) | blood radioactivity clearance [1] | IC50 [2] [nM] | IC50 [3] [nM]
1 | Nc1c2c(nc3cc(Cl)ccc13)CCCC2O (stereo not shown) [6-chlorotacrin-1-ol] | more potent than tacrine |  |  | 
2 | Nc1c2c(nc3cc(F)ccc13)CCCC2O (stereo not shown) [6-fluorotacrin-1-ol] | more potent than tacrine |  |  | 
3 | Cl.NNc1ccc(C(=O)NCCNc2c3c(nc4ccccc24)CCC3)cn1 [Compound 6a, 6-Hydrazino-N-[2-(2,3-dihydro-1H-cyclopenta[b]quinolin-9-ylamino)Ethyl]nicotinamide hydrochloride] |  | comparatively rapid | 164 ± 1.6 | 31.5 ± 1.9
4 | NNc1ccc(C(=O)NCCCNc2c3c(nc4ccccc24)CCC3)cn1 [Compound 6b, 6-Hydrazino-N-[3-(2,3-dihydro-1H-cyclopenta[b]quinolin-9-ylamino)propyl]nicotinamide hydrochloride] |  |  | 197 ± 3.4 | 19.3 ± 1.1
5 | NNc1ccc(C(=O)NCCCCNc2c3c(nc4ccccc24)CCC3)cn1 [Compound 6c, 6-Hydrazino-N-[4-(2,3-dihydro-1H-cyclopenta[b]quinolin-9-ylamino)butyl]nicotinamide hydrochloride] |  |  | 2650 ± 9.5 | 22.4 ± 1.7
6 | NNc1ccc(C(=O)NCCCCCNc2c3c(nc4ccccc24)CCC3)cn1 [Compound 6d, 6-Hydrazino-N-[5-(2,3-dihydro-1H-cyclopenta[b]quinolin-9-ylamino)pentyl]nicotinamide hydrochloride] |  |  | 4240 ± 2.2 | 7.84 ± 2.2
7 | NNc1ccc(C(=O)NCCCCCCNc2c3c(nc4ccccc24)CCC3)cn1 [Compound 6e, 6-Hydrazino-N-[6-(2,3-dihydro-1H-cyclopenta[b]quinolin-9-ylamino)hexyl]nicotinamide hydrochloride] |  |  | 16600 ± 17.5 | 41.6 ± 1
8 | NNc1ccc(C(=O)NCCCCCCCNc2c3c(nc4ccccc24)CCC3)cn1 [Compound 6f, 6-Hydrazino-N-[7-(2,3-dihydro-1H-cyclopenta[b]quinolin-9-ylamino)heptyl]nicotinamide hydrochloride] |  |  | 22700 ± 20.6 | 17.6 ± 0.8
9 | NNc1ccc(C(=O)NCCCCCCCCNc2c3c(nc4ccccc24)CCC3)cn1 [Compound 6g, 6-Hydrazino-N-[8-(2,3-dihydro-1H-cyclopenta[b]quinolin-9-ylamino)octyl]nicotinamide hydrochloride] |  |  | 19600 ± 16.4 | 5.17 ± 1.4
10 | NNc1ccc(C(=O)NCCCCCCCCCNc2c3c(nc4ccccc24)CCC3)cn1 [Compound 6h, 6-Hydrazino-N-[9-(2,3-dihydro-1H-cyclopenta[b]quinolin-9-ylamino)nonyl]nicotinamide hydrochloride] |  |  | 17100 ± 21.3 | 3.65 ± 0.5

Source: publication PMC3431846, “2,3-Dihydro-1H-cyclopenta[b]quinoline Derivatives as Acetylcholinesterase Inhibitors—Synthesis, Radiolabeling and Biodistribution” (International Journal of Molecular Sciences, 2012)
